Experimental data as given in patent US7811797B2, “α-isomaltosylglucosaccharide-forming enzyme, process and uses of the same” (Kabushiki Kaisha Hayashibara Seibutsu Kagaku Kenkyujo, priority 2000, dated 2010).

What was measured:
[1] = tested on: α-isomaltosylglucosaccharide-forming enzyme; experiment: Action on saccharides (substrates), Enzyme of Strain C9; format: biochemical, Bacillus globisporus C9; design: key: −: it showed no change; +: it showed a slight reduction of the color spot of the substrate and the formation of other reaction product; ++: it showed a high reduction of the color spot of the substrate and the formation of other reaction product; +++: it showed a substantial disappearance of the substrate spot and the formation of other reaction product; settings: two units/g substrate, substrate 2% (w/v), 30° C., pH 6.0, 24 hours, TLC
Protocol: (§1) It was tested whether saccharides can be used as substrates for the α-isomaltosylglucosaccharide-forming enzyme. For the purpose, a solution of maltose, maltotriose, maltotetraose, maltopentaose, maltohexaose, maltoheptaose, isomaltose, isomaltotriose, panose, isopanose, trehalose, kojibiose, nigerose, neotrehalose, cellobiose, gentibiose, maltitol, maltotriitol, lactose, sucrose, erlose, selaginose, maltosyl glucoside, or isomaltosyl glucoside was prepared.
(§2) To each of the above solutions was added two units/g substrate of a purified specimen of α-isomaltosylglucosaccharide-forming enzyme from either Bacillus globisporus C9 obtained by the method in Experiment 4-2, Bacillus globisporus C11 obtained by the method in Experiment 7-2, Bacillus globisporus N75 obtained by the method in Experiment 11-2, or Arthrobacter globiformis A19 obtained by the method in Experiment 15-2, and the resulting each solution was adjusted to give a substrate concentration of 2% (w/v) and incubated at 30° C. and pH 6.0, except for using pH 8.4 for the enzyme from Arthrobacter globiformis A19, for 24 hours. The enzyme solutions before and after the enzymatic reactions were respectively analyzed on TLC disclosed in Experiment 1 to confirm whether the enzymes acted on these substrates.

[2] = tested on: α-isomaltosylglucosaccharide-forming enzyme; experiment: Action on saccharides (substrates), Enzyme of Strain C11; format: biochemical, Bacillus globisporus C11; design: key: −: it showed no change; +: it showed a slight reduction of the color spot of the substrate and the formation of other reaction product; ++: it showed a high reduction of the color spot of the substrate and the formation of other reaction product; +++: it showed a substantial disappearance of the substrate spot and the formation of other reaction product; settings: two units/g substrate, substrate 2% (w/v), 30° C., pH 6.0, 24 hours, TLC
Protocol: as §1, §2

[3] = tested on: α-isomaltosylglucosaccharide-forming enzyme; experiment: Action on saccharides (substrates), Enzyme of Strain N75; format: biochemical, Bacillus globisporus N75; design: key: −: it showed no change; +: it showed a slight reduction of the color spot of the substrate and the formation of other reaction product; ++: it showed a high reduction of the color spot of the substrate and the formation of other reaction product; +++: it showed a substantial disappearance of the substrate spot and the formation of other reaction product; settings: two units/g substrate, substrate 2% (w/v), 30° C., pH 6.0, 24 hours, TLC
Protocol: as §1, §2

[4] = tested on: α-isomaltosylglucosaccharide-forming enzyme; experiment: Action on saccharides (substrates), Enzyme of Strain A19; format: biochemical, Arthrobacter globiformis A19; design: key: −: it showed no change; +: it showed a slight reduction of the color spot of the substrate and the formation of other reaction product; ++: it showed a high reduction of the color spot of the substrate and the formation of other reaction product; +++: it showed a substantial disappearance of the substrate spot and the formation of other reaction product; settings: two units/g substrate, substrate 2% (w/v), 30° C., pH 8.4, 24 hours, TLC
Protocol: as §1, §2

[5] = tested on: α-isomaltosylglucosaccharide-forming enzyme; experiment: Transfer-acceptor specificity, Enzyme of Strain C9; format: biochemical, Bacillus globisporus C9; settings: acceptor 1.6%, PINE-DEX #100 donor 4%, one unit/g donor, 30° C., pH 6.0, 24 hours
Protocol: (§3) Using different saccharides, it was tested whether the saccharides were used as transferring-acceptors for the α-isomaltosylglucosaccharide-forming enzyme of the present invention. A solution of D-glucose, D-xylose, L-xylose, D-galactose, D-fructose, D-mannose, D-arabinose, D-fucose, D-psicose, L-sorbose, L-rhamnose, methyl-α-glucopyranoside, methyl-β-glucopyranoside, N-acetyl-glucosamine, sorbitol, trehalose, isomaltose, isomaltotriose, cellobiose, gentibiose, glycerol, maltitol, lactose, sucrose, α-cyclodextrin, β-cyclodextrin, γ-cyclodextrin, or L-ascorbic acid was prepared.
(§4) To each solution with a saccharide concentration of 1.6% was added “PINE-DEX #100”, a partial starch hydrolysate, as a saccharide donor, to give a concentration of 4%, and admixed with one unit/g saccharide donor, d.s.b., of either of purified specimens of α-isomaltosylglucosaccharide-forming enzyme from Bacillus globisporus C9 obtained by the method in Experiment 4-2, Bacillus globisporus C11 obtained by the method in Experiment 7-2, Bacillus globisporus N75 obtained by the method in Experiment 11-2, or Arthrobacter globiformis A19 obtained by the method in Experiment 15-2, and incubated at 30° C. and pH 6.0, except that pH 8.4 was used for the enzyme from Arthrobacter globiformis A19, for 24 hours. The reaction mixtures of the post-enzymatic reactions were analyzed on gas chromatography (abbreviated as “GLC” hereinafter) for monosaccharides and disaccharides as acceptors, and on HPLC for trisaccharides as acceptors to confirm whether these saccharides could be used as their transfer acceptors. In the case of performing GLC, the following apparatuses and conditions are used: GLC apparatus, “GC-16A” commercialized by Shimadzu Corporation, Tokyo, Japan; column, a stainless-steel column, 3 mm in diameter and 2 m in length, packed with 2% “SILICONE OV-17/[…]”, commercialized by GL Sciences Inc., Tokyo, Japan; carrier gas, nitrogen gas at a flow rate of 40 ml/min under temperature conditions of increasing from 160° C. to 320° C. at an increasing temperature rate of 7.5° C./min; and detection, a hydrogen flame ionization detector. In the case of HPLC analysis, the apparatuses and conditions used are: HPLC apparatus, “CCPD” commercialized by Tosoh Corporation, Tokyo, Japan; column, “ODS-AQ-303” commercialized by YMC Co., Ltd., Tokyo, Japan; eluent, water at a flow rate of 0.5 ml/min; and detection, a differential refractometer.

[6] = tested on: α-isomaltosylglucosaccharide-forming enzyme; experiment: Transfer-acceptor specificity, Enzyme of Strain C11; format: biochemical, Bacillus globisporus C11; settings: acceptor 1.6%, PINE-DEX #100 donor 4%, one unit/g donor, 30° C., pH 6.0, 24 hours
Protocol: as §3, §4

[7] = tested on: α-isomaltosylglucosaccharide-forming enzyme; experiment: Transfer-acceptor specificity, Enzyme of Strain N75; format: biochemical, Bacillus globisporus N75; settings: acceptor 1.6%, PINE-DEX #100 donor 4%, one unit/g donor, 30° C., pH 6.0, 24 hours
Protocol: as §3, §4

[8] = tested on: α-isomaltosylglucosaccharide-forming enzyme; experiment: Transfer-acceptor specificity, Enzyme of Strain A19; format: biochemical, Arthrobacter globiformis A19; settings: acceptor 1.6%, PINE-DEX #100 donor 4%, one unit/g donor, 30° C., pH 8.4, 24 hours
Protocol: as §3, §4

| Structure (SMILES) | Enzymatic action, Enzyme of Strain C9 [1] | Enzymatic action, Enzyme of Strain C11 [2] | Enzymatic action, Enzyme of Strain N75 [3] | Enzymatic action, Enzyme of Strain A19 [4] | Product of transferring reaction, Enzyme of Strain C9 [5] | Product of transferring reaction, Enzyme of Strain C11 [6] | Product of transferring reaction, Enzyme of Strain N75 [7] | Product of transferring reaction, Enzyme of Stain A19 [8] |
| --- | --- | --- | --- | --- | --- | --- | --- | --- |
| OC[C@H]1O[C@H](OC[C@H]2OC(O)[C@H](O)[C@@H](O)[C@@H]2O)[C@H](O)[C@@H](O)[C@@H]1O (stereo partly shown) [Isomaltose] | − | − | − | − | ++ (a saccharide-transferred product was detected in an amount over ten percent through transfer reaction to acceptor) | ++ (a saccharide-transferred product was detected in an amount over ten percent through transfer reaction to acceptor) | ++ (a saccharide-transferred product was detected in an amount over ten percent through transfer reaction to acceptor) | + (a saccharide-transferred product was detected in an amount over one percent but less than ten percent through transfer reaction to acceptor) |
| O=C[C@H](O)[C@@H](O)[C@H](O[C@@H]1O[C@H](CO)[C@@H](O)[C@H](O)[C@H]1O)[C@H](O)CO [Cellobiose] | − | − | − | − | ++ (a saccharide-transferred product was detected in an amount over ten percent through transfer reaction to acceptor) | ++ (a saccharide-transferred product was detected in an amount over ten percent through transfer reaction to acceptor) | ++ (a saccharide-transferred product was detected in an amount over ten percent through transfer reaction to acceptor) | ++ (a saccharide-transferred product was detected in an amount over ten percent through transfer reaction to acceptor) |
| OC[C@H]1O[C@@H](OC[C@H]2OC(O)[C@H](O)[C@@H](O)[C@@H]2O)[C@H](O)[C@@H](O)[C@@H]1O (stereo partly shown) [Gentibiose] | − | − | − | − | ++ (a saccharide-transferred product was detected in an amount over ten percent through transfer reaction to acceptor) | ++ (a saccharide-transferred product was detected in an amount over ten percent through transfer reaction to acceptor) | ++ (a saccharide-transferred product was detected in an amount over ten percent through transfer reaction to acceptor) | + (a saccharide-transferred product was detected in an amount over one percent but less than ten percent through transfer reaction to acceptor) |

Further lines, with some results ahead:

| Enzymatic action, Enzyme of Strain C9 [1] | Enzymatic action, Enzyme of Strain C11 [2] | Enzymatic action, Enzyme of Strain N75 [3] | Enzymatic action, Enzyme of Strain A19 [4] | Structure (SMILES) | Product of transferring reaction, Enzyme of Strain C9 [5] | Product of transferring reaction, Enzyme of Strain C11 [6] | Product of transferring reaction, Enzyme of Strain N75 [7] | Product of transferring reaction, Enzyme of Stain A19 [8] |
| --- | --- | --- | --- | --- | --- | --- | --- | --- |
| − | − | − | − | OC[C@H]1O[C@@H](O[C@H]2[C@H](O)[C@@H](O)C(O)O[C@@H]2CO)[C@H](O)[C@@H](O)[C@H]1O (stereo partly shown) [Lactose] | ++ (a saccharide-transferred product was detected in an amount over ten percent through transfer reaction to acceptor) | ++ (a saccharide-transferred product was detected in an amount over ten percent through transfer reaction to acceptor) | ++ (a saccharide-transferred product was detected in an amount over ten percent through transfer reaction to acceptor) | ++ (a saccharide-transferred product was detected in an amount over ten percent through transfer reaction to acceptor) |
| − | − | − | − | OC[C@H]1O[C@@](CO)(O[C@H]2O[C@H](CO)[C@@H](O)[C@H](O)[C@H]2O)[C@@H](O)[C@@H]1O [Sucrose] | ++ (a saccharide-transferred product was detected in an amount over ten percent through transfer reaction to acceptor) | ++ (a saccharide-transferred product was detected in an amount over ten percent through transfer reaction to acceptor) | ++ (a saccharide-transferred product was detected in an amount over ten percent through transfer reaction to acceptor) | ++ (a saccharide-transferred product was detected in an amount over ten percent through transfer reaction to acceptor) |
